Among the data in publication PMC10709440, “High-throughput ligand profile characterization in novel cell lines expressing seven heterologous insect olfactory receptors for the detection of volatile plant biomarkers” (Scientific Reports, 2023) are activity values, retold here.

The target of one assay is T1, Drosophila OR85b (Drosophila melanogaster, UniProt Q9VHQ7).
T1 construct: expressed in transfected cells
T1 sequence (Q9VHQ7 1-390): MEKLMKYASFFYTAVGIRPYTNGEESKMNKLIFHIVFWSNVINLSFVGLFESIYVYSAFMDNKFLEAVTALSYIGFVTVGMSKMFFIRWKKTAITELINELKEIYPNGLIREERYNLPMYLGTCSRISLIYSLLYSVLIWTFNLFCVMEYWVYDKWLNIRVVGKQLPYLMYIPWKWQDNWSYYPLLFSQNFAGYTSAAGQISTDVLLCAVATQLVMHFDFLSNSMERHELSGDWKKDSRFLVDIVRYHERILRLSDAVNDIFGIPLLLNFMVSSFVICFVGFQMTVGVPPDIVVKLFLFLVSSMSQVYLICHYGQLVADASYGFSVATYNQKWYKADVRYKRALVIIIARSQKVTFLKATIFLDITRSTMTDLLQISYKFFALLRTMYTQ
T1 sequence (Q9VNB5 1-486 partner): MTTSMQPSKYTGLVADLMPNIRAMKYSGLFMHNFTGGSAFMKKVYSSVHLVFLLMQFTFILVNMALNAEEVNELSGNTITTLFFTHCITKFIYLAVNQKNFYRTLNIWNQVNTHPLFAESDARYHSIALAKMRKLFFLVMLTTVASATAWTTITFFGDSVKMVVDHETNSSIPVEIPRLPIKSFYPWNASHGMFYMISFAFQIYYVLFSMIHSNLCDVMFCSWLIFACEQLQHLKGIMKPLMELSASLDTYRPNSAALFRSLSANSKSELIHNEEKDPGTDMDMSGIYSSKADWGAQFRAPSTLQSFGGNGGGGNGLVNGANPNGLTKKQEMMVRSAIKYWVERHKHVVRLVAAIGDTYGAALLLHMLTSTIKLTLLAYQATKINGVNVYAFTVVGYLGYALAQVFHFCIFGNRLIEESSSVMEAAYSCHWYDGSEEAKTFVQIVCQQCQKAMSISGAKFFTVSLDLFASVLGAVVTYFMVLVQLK
As to the kind of experiment: cell-based. Further details: GCaMP6 calcium fluorescence in stable HEK293 OR+ORCO lines; peak dF normalised to 50 uM VUAA1 (=1). Particulars: HEK293; relative to 50 uM VUAA1 response; below 0.05 set to 0; read-out: % activation. The method, then: (§1) Twelve thousand to 18,000 cells were plated into each well of a black wall, transparent bottom 384-well microplate (Greiner) 48 h or 72 h before the measurements and were simultaneously treated with 1 μg/mL doxycycline. Typically, three columns were filled with one OR expressing cell line, each row was treated with the same compound (three technical replicates for each OR), and each responsive VOC-OR combination was measured at least three times on different days. The plate has 24 columns, thus we could record responses in up to eight different cell lines in each plate. On the day of the experiment, the growth medium was replaced with 20 µL assay buffer/well (140 mM NaCl, 5 mM KCl, 2 mM CaCl2, 1 mM MgCl2, 5 mM HEPES-Na, 20 mM glucose, pH 7.3, 340 mOsm). […] Baseline fluorescence (F0) was recorded for 5 s, after which 7 µL VOC buffer (140 mM NaCl, 5 mM KCl, 2 mM CaCl2, 1 mM MgCl2, 5 mM HEPES-Na, 31 mM glucose, 0.1% DMSO, pH 7.3, 340 mOsm) was injected into each well in one row and the fluorescence response was recorded for an additional 30 s, at a rate of one read/sec. VOC solutions (VOC buffer with 4× concentration of the final measured VOC concentration, 9 µL/well was injected) were measured on the same wells in a second round with the same protocol. Each individual concentration of a specific VOC sample was recorded in three wells for the same cell line on the same microplate. The raw data were exported in xls file format, F0 and FMAX values, and the fluorescence intensity changes (∆F) were calculated in Excel (Microsoft) (Supplementary file Data summary.xlsx) using the following equation: ΔF=FMAX-F0/F0 (see also Fig. 1C). On each plate, we recorded the response of each cell line to 50 µM VUAA1. The average of these ∆F values of each cell line were used to calculate the VUAA1-normalized values for the rest of the plate, by dividing VOC response ∆F values by the average VUAA1 response ∆F value of the corresponding OR cell line. Each VOC-OR combination was measured three times as tec The recorded FMAX, F0, ∆F, VUAA1-normalized ∆F values, as well as the OR name, the name of the tested sample, and the final concentration for each well were copied into supplementary file Data summary.xlsx, that was used to summarize all the plates recorded. Here, the averages of the measurements were calculated for each receptor-VOC-concentration combination. […] Each VOC was measured at 1, 10, and 100 µM final concentration on each receptor. VUAA1-normalized response was calculated as described in methods. Values are averages of at least three biological replicates for responsive combinations and two for the non-responsive combinations. The chemical structures of the strong and medium ligands are shown for each cell line. Heat map: white-green colors correspond to the lowest-highest values measured for each cell line.

The next assay concerns the target T2, Drosophila OR47a (Drosophila melanogaster, UniProt P81921).
T2 construct: expressed in transfected cells
T2 sequence (P81921 1-385): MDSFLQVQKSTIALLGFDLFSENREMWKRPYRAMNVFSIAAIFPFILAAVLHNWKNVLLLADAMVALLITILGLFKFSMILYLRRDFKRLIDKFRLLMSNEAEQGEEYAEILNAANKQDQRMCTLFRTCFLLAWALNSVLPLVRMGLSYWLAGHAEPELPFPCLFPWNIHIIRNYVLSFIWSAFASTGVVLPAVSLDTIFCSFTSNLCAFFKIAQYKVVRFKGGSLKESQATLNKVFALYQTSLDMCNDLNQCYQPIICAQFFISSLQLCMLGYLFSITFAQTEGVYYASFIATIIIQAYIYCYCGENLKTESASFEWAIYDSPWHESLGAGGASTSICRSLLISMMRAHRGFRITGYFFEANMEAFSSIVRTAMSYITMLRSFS
T2 sequence (Q9VNB5 1-486 partner): T1 sequence (Q9VNB5 1-486 partner)
The assay is described as follows: cell-based. The settings on record: HEK293; relative to 50 uM VUAA1 response; below 0.05 set to 0; read-out: % activation. Further details: GCaMP6 calcium fluorescence in stable HEK293 OR+ORCO lines; peak dF normalised to 50 uM VUAA1 (=1). Here is the method: as §1

Each structure is given as a SMILES string.

For `CC/C=C/CCO` [e3-hexenol], on Drosophila OR85b, the activity at 1 µM was 0%, the activity at 10 µM worked out at 0% and the activity at 100 µM amounted to 0%. Besides, at Drosophila OR47a, the activity at 1 µM was 6.26%, the activity at 10 µM was found to be 0% and the activity at 100 µM turned out to be 14%.
